According to patent US20220098196A1, “TRAPPING-FREE PARP INHIBITORS” (The Board of Regents of the University of Texas System, priority 2019, published 2022):

Experiments:
[1] = molecular target: PARP2 (Homo sapiens, UniProt Q9UGN5); conditions: HeLa cells, iRucaparib 5 μM, 24 hours
Description: (§1) Quantitative Mass Spectrometry. […] Two biological replicate samples were prepared for each treatment condition. Cells were washed with cold PBS and lysed using the SDS lysis buffer. Protein concentrations were determined by the BCA assay (Thermo Fisher Scientific). For each sample, 500 μg of protein was used for the subsequent TMT experiments^34.
(§2) For the TMT experiments, proteins were reduced with 2 mM DTT for 10 min and alkylated with 50 mM iodoacetamide for 30 min in dark. Proteins were then extracted using methanol-chloroform precipitation. Protein pellets were dissolved in 400 μL 8 M Urea buffer (8 M urea, 50 mM Tris-HCl, 10 mM EDTA, pH 7.5) and were digested by Lys-C (Wako, at a 1:100 enzyme/protein ratio) for 2 hours at RT. The urea concentration was then reduced to 2 M using freshly made 100 mM ammonium bicarbonate solution. […]
(§3) Samples were desalted and fractioned by bRPLC (basic pH reversed phase HPLC) on a ZORBAX 300 Extend-C18 column (Narrow Bore RR 2.1 mm×100 mm, 3.5 μm particle size, 300 Å pore size). […] Samples were then analyzed on an Orbitrap Elite mass spectrometer (Thermo Fisher Scientific) using a top 15 HCD (higher-energy collisional dissociation) method.
(§4) The maximum intensity of each reporter ion was extracted. For each reporter ion channel, the observed signal-to-noise ratio was summed across all quantified proteins and was normalized.

[2] = molecular target: ZFP91 (Homo sapiens, UniProt Q96JP5+Q96SW2); conditions: HeLa cells, 5 μM, 24 hours
ZFP91, sequence (Q16531 2-1140): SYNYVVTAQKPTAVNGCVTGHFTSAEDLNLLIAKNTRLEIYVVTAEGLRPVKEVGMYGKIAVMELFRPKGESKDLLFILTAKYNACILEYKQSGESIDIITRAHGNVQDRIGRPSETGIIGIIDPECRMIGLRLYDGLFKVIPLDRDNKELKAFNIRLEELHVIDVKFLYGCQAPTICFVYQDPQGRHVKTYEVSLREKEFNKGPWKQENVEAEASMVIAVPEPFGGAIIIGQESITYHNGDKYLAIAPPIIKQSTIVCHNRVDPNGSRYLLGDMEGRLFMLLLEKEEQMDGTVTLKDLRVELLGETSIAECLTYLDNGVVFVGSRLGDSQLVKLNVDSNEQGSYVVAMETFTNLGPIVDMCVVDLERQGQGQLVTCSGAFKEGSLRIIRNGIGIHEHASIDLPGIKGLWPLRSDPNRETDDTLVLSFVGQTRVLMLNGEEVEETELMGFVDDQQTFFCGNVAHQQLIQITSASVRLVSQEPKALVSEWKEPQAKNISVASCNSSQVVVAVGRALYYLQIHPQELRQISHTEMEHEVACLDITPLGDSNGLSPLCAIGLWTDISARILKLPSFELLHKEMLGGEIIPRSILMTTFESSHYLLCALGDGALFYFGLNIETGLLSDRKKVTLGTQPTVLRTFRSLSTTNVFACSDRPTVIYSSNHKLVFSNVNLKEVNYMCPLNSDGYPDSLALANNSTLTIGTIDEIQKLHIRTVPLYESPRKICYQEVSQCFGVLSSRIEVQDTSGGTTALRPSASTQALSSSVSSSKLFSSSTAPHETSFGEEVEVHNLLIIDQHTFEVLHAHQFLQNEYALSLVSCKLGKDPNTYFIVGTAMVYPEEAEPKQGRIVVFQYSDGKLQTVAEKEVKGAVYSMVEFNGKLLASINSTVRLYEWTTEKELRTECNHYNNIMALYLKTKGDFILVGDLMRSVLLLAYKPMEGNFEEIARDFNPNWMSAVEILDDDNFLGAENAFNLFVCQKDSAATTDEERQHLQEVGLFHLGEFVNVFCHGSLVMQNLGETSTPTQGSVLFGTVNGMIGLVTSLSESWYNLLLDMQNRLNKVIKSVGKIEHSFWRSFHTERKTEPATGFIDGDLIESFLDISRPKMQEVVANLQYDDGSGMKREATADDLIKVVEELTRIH
ZFP91, sequence (Q96SW2 whole entry): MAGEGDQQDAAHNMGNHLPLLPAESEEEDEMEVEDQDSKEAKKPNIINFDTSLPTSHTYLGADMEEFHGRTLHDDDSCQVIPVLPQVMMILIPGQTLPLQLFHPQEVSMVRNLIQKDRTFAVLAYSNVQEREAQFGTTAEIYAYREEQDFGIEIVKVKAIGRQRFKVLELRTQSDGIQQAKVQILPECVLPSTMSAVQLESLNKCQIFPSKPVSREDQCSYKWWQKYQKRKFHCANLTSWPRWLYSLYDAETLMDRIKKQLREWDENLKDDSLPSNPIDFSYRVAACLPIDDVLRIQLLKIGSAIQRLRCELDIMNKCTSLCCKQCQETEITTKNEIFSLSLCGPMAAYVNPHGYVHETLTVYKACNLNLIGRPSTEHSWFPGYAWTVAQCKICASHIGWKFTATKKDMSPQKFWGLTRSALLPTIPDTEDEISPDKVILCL
ZFP91, sequence (Q96JP5 2-570): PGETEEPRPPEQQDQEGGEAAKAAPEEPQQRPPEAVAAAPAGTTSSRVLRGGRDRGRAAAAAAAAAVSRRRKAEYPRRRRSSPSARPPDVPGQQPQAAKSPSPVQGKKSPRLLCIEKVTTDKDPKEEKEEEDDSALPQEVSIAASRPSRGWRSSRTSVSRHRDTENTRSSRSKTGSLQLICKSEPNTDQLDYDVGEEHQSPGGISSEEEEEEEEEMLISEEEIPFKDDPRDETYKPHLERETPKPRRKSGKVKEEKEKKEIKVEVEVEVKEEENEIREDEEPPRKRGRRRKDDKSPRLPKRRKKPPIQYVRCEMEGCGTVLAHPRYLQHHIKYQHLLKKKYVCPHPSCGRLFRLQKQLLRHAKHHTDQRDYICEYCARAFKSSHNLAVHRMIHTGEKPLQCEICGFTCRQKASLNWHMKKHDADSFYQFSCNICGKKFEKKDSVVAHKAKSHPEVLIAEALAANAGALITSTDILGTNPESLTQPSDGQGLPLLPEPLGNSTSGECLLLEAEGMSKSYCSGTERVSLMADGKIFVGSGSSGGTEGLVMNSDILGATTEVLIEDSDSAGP
Description: as §1, §2, §3, §4

[3] = molecular target: T1, PARP1 (Mus musculus, UniProt P11103); assay: MMS-induced PARP1 activation (PARylation) in C2C12 myotubes; format: cell-based; conditions: 5 μM 24 hours pretreatment, PDD 00017273, MMS 0.01% 1 hr
T1 construct: host or cells: C2C12 myoblasts / differentiated myotubes
T1 sequence (P11103 whole entry): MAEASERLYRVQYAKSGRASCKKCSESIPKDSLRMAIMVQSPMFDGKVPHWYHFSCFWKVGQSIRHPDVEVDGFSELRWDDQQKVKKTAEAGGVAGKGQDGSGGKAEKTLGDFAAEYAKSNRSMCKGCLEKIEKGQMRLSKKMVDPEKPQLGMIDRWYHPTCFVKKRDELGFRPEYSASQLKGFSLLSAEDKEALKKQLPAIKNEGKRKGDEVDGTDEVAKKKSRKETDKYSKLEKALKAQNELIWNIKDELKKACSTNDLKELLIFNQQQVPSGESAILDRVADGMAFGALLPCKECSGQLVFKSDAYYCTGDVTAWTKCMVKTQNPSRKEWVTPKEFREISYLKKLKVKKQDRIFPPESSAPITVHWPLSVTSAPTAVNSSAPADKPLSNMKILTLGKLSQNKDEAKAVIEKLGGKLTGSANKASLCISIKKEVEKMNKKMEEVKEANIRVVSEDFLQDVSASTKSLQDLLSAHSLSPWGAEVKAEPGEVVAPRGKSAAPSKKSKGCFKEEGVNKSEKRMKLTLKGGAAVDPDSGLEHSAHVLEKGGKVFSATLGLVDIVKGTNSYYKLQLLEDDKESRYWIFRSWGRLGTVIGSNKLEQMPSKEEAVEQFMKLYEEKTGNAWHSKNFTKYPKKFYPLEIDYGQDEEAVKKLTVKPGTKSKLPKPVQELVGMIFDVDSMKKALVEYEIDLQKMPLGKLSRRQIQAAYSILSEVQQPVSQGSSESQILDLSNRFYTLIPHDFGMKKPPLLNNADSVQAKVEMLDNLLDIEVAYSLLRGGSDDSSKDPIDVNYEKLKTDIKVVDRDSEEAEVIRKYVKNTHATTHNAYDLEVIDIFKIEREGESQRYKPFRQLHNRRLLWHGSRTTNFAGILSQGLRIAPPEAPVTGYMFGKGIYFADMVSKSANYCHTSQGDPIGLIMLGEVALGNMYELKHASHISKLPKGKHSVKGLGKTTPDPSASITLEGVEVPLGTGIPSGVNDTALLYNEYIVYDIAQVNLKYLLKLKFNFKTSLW

[4] = molecular target: T2, PARP1 (Homo sapiens, UniProt P09874); assay: PARP1 inhibition in intact HeLa cells (PAR immunoblotting after PARG inhibitor and H2O2); format: cell-based; set-up: host or cells: HeLa; conditions: PDD00017273 1 hr, compound 10 μM 1 hr
T2 sequence (P09874 whole entry): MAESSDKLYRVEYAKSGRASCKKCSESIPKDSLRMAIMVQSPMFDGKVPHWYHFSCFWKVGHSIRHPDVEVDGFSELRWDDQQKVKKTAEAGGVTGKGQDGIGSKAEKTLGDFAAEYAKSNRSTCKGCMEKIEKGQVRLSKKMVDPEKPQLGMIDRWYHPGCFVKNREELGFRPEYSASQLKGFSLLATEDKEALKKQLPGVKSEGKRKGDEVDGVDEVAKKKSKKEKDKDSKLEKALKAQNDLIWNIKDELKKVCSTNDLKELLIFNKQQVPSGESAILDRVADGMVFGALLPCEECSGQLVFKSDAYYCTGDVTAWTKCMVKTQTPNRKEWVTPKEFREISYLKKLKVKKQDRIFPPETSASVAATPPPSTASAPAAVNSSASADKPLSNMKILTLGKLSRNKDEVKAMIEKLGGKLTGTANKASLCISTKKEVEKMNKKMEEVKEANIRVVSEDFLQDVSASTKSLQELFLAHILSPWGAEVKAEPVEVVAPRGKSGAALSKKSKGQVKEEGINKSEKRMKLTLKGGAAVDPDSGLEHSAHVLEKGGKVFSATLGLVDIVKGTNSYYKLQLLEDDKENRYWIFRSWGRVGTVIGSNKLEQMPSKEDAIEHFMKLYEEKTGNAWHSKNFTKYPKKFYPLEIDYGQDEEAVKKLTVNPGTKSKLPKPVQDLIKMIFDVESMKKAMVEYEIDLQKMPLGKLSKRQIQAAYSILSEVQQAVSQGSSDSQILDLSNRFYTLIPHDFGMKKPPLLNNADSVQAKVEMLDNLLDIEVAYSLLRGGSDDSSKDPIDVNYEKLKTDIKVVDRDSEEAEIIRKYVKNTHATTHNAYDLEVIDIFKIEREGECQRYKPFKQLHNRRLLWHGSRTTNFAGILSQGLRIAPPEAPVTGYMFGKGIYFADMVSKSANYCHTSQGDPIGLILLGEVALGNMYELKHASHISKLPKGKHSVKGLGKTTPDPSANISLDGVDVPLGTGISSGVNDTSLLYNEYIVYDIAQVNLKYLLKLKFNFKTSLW
Text: HeLa cells were pretreated with a cell-permeable PARG inhibitor, PDD00017273 for 1 hr to allow the accumulation of PARylated proteins.

[5] = molecular target: T2, PARP1; assay: TMT quantitative proteomics in BT-549 cells, PARP1; format: cell-based; conditions: iRucaparib 5 μM or VHL-Rucaparib 20 μM, 24 hours, 8,207 quantified proteins
Text: (§5) Quantitative Mass Spectrometry.
(§6) Proteins were then extracted using methanol-chloroform precipitation.
(§7) The maximum intensity of each reporter ion was extracted.

[6] = test system: C2C12 myotubes; assay: ATP measurement in C2C12 cells after MMS (CellTiter-Glo); format: cell-based, mouse; conditions: 5 μM 24 hours pretreatment, MMS 0.01% 9 hours
Description: ATP and NAD^+ measurement. ATP levels were measured by a luminescence assay using the CellTiter-Glo luminescent kit (Promega). […] The cells were balanced for 30 min at RT. One hundred microliters of the CellTiter-Glo reagent was added into each well and incubated for 10 min. ATP levels were determined according the manufacturer's instruction. NAD^+ levels were assayed using an NAD/NADH quantification kit (Sigma). […] Approximately 2×10^5 cells were washed with 1 mL cold PBS and lysed in 400 μl of the extraction buffer. […] The samples were vortexed for 15 sec and centrifuged at 13,000 g for 10 min to remove the insoluble materials. NAD^+ was quantified according to the manufacturer's instruction (Sigma). Fifty microliters of the extracts were used in the NAD^+ assay, and the values were normalized by the amount of protein in each sample.

[7] = molecular target: T2, PARP1; assay: Quantitative analysis of the Asp- and Glu-ADP-ribosylated proteome (SILAC HeLa cells); format: cell-based; set-up: host or cells: HeLa; conditions: 10 μM, 1 hr, H2O2 2 mM, compared with Rucaparib
Description: Protein concentrations were determined by the BCA assay kit.

[8] = molecular target: T3, hexose-6-phosphate dehydrogenase (H6PD) (Homo sapiens, UniProt O95479); assay: TMT quantitative proteomics in HeLa cells, H6PD; format: cell-based; conditions: 5 μM, 24 hours
T3 construct: host or cells: HeLa
T3 sequence (O95479 20-791): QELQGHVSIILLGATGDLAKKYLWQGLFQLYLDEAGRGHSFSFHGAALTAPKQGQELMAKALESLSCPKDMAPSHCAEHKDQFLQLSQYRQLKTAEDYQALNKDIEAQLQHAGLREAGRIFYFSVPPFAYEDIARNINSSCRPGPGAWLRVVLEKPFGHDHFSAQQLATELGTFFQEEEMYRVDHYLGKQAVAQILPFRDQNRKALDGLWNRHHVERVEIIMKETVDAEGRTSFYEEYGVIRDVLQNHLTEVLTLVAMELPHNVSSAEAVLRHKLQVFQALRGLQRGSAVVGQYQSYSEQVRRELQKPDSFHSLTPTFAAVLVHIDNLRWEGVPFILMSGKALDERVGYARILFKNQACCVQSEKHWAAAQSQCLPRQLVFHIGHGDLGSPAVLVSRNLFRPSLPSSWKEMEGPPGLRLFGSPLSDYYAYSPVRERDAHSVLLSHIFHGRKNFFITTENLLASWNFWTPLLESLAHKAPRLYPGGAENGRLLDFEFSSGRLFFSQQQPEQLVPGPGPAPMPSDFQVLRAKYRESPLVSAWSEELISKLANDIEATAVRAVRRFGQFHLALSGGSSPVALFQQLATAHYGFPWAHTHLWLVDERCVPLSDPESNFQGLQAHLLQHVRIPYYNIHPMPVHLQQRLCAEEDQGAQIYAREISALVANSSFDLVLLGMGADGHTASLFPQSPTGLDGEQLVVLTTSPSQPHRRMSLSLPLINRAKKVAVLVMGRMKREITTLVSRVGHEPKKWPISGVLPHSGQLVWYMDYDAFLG
Text: as §5, §6, §7

PARP2, sequence (Q9UGN5 whole entry): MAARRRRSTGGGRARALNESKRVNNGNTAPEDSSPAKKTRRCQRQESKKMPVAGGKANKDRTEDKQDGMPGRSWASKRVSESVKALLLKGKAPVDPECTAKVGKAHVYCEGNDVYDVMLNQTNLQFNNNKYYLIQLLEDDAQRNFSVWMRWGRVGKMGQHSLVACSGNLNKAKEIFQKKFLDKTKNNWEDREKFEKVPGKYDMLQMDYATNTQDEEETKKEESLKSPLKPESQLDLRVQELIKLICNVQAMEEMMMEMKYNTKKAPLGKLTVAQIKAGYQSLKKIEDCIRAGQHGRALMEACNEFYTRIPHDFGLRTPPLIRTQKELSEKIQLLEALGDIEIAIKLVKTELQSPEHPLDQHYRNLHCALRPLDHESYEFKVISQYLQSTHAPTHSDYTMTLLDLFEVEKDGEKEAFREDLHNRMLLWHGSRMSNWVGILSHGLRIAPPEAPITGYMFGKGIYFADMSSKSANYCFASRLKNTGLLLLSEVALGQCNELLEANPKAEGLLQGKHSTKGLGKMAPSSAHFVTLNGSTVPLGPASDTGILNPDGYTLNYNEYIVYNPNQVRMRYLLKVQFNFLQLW

`CN(CCCCc1cn(CCOCCOCCOCCNc2cccc3c2C(=O)N(C2CCC(=O)NC2=O)C3=O)nn1)Cc1ccc(-c2[nH]c3cc(F)cc4c3c2CCNC4=O)cc1` (centres unmarked) [iRucaparib, Rucaparib-Triazole-PEG3-Pomalidomide] was tested, and the PARP2 decrease [1] was “about 30%”, the “ZFP91 Log 2(iRucaparib/DMSO) ratio” value [2] was −2.09 and the “MMS-induced PARP1 activation” value [3] was “completely blocked”. The “PARP1 activity (PAR signal, PARP1 mobility shift)” value [4] was “completely blocked”, the PARP1 downregulation [5] was “one of the most significantly downregulated proteins” and the “rescue of MMS-lowered ATP abundances” value [6] was “could be rescued”. For the same compound, the “response of PARP1 auto-modified peptide AEPVE*VVAPR” value [7] was “very similar response” and the “H6PD Log 2(iRucaparib/DMSO) ratio” value [8] was 0.02.
